According to PMC9296036, “A peptide interfering with the dimerization of oncogenic KITENIN protein and its stability suppresses colorectal tumour progression” (Clinical and Translational Medicine, 2022):
Ends that are not written are not given here.

Target: T1, KITENIN homodimer (Homo sapiens, UniProt Q8TAA9)
T1 construct: Lysates of 293T cells expressing full‐length KITENIN‐myc; expressed in transfected cells; host or cells: Caco2
T1 sequence (Q8TAA9 1-524): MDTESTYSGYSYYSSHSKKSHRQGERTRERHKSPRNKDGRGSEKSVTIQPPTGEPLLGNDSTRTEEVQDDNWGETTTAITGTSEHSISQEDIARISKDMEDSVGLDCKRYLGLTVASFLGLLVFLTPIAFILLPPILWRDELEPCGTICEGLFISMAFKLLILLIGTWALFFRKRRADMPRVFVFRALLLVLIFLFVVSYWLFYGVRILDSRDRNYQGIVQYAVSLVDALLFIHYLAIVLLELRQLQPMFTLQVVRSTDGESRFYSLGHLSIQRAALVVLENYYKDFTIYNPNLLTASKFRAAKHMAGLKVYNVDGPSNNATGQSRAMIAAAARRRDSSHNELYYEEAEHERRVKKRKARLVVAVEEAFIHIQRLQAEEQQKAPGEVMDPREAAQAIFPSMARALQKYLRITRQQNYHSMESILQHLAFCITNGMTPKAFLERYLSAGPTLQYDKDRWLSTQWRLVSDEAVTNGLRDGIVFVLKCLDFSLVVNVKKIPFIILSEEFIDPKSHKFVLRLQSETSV
Test: In vitro pull-down of purified KITENIN-GST and KITENIN-His
Format: biochemical
Details: KDIP 5 μM, 4°C, 2 h, GST pull-down
Experimental: GST‐KITENIN or its derivatives were immobilized on glutathione‐sepharose beads. Myc‐tagged KITENIN was incubated with GST‐tagged KITENIN or its derivative proteins immobilized on glutathione‐sepharose as indicated. The bound protein complexes were eluted and analysed by SDS–PAGE followed by IB. To detect in vitro KITENIN homodimerization, […] GST‐KITENIN was incubated with Ni‐NTA‐purified KITENIN‐His and KDIP (5 μM) in the pull‐down buffer (50‐mM Tris.Cl [pH 7.5], 1‐mM dithiothreitol [DTT] 4% [v/v] glycerol, .1 mg/ml of BSA, 5‐mM MgCl2, 1‐mM ATP and 50‐mM NaCl) at 4°C for 2 h. […]
FIGURE 2 KAI1 C‐terminal interacting tetraspanin (KITENIN) dimerization‐interfering peptide (KDIP) suppresses KITENIN‐induced enhanced cell invasion through the inhibition of the homodimerization of KITENIN. […] After 48 h of treatment, KITENIN transcripts in cells were analysed by the 2^−ΔΔ ^CT method using Q‐PCR. […] Caco2 cells were co‐transfected with KITENIN‐V5/Myc and treated with or without KDIP or scrambled peptide (scr) and were immunoprecipitated with anti‐V5 antibody and detected by indicated antibodies. Numerals indicated a quantification of the MYC bands normalized to the corresponding V5 bands (left panel). […] The histogram represents invading cells, which were counted at four chosen areas and shown by bar graphs (mean ± SEM, n = 4, ^** p < .01). […]

- dimerization of purified KITENIN proteins in vitro (in words): directly reduced
Sequence: YARVRRRGPRRWRLVSDEAV [KDIP]
